The source of these data is patent US9216169B2, “Pharmaceutical composition comprising candesartan or ester thereof and chlortalidone, and use thereof” (TIANJIN INSTITUTE OF PHARMACEUTICAL RESEARCH, priority 2011, dated 2015).

Structures are written as SMILES. Several values for one entry are separate records, joined by “and”; a condition that tells them apart may be missing. Equal values may be shown once.

For test [1] the following is noted: clinical studies; cited from earlier work.
The test system of another test is patients. The conditions noted are these: study in 1714 patients; cited from earlier work.
For test [2] the following is noted: 25-50 mg/d of hydrochlorothiazide; clinical studies; cited from earlier work.
For test [3], the system named is Spontaneously hypertensive rats (SHR). The test is described as follows: SBP of SHR by Tail-Cuff method, continuous intragastric administration for 8 days (Examples 1-7). In kind it is in vivo, rat. As to conditions: for maximum reduction of the blood pressure / SBP / SBP difference value compared with the basic value / AUC0-24h (area under blood pressure reduction-time curve): Can 0.36 mg/kg i.g. 8 days; for maximum reduction of the blood pressure: 0-24 h after last administration; for AUC0-24h (area under blood pressure reduction-time curve): after last administration. On the procedure:
(§1) Spontaneously hypertensive rats (SHR), male, are provided by Beijing Vital River Laboratory Animal Technology Co., Ltd. The number of animal production license is SCXK (Jing) 2007-0001. Animals are raised in an observation room at the room temperature of 25±2° C. controlled by central air-conditioning system and with artificial lighting of 12 h/day. The animals are raised in separate cages sized 43×27×18 cm with 4 animals for each cage. The rats are free access to water and are fed with block fodder everyday, and the water supply is refreshed once a day. The temperature of the room for measuring the blood pressure is 26±2° C.
(§2) The blood pressure is measured by Tail-Cuff method and the hear rate is measured according to the pulse frequency. Animals are pre-trained for the blood pressure measurement for more than 2 weeks so as to adapt to the environment of measurement. Animals are placed in a isothermal bag at 37° C. to be prewarmed for 5 to 10 min for formal measurement. Blood pressures of the rats are measured from tail arteries for 2 to 3 times at rest states, and an average value is taken as each blood pressure measured value. All data are collected and preserved by a computer.
SHRs with systolic blood pressures (SBPs) >190 mmHg are selected for experiment.
Rats are randomly divided into 14 groups according to their blood pressures with each group having 7 rats. Animals are fasted overnight and measured for the blood pressure of pre-administration at the day of experiment, and then administered drugs in accordance with the following method:
The single-drug group is intragastrically administered candesartan (Can) or chlorthalidone (Chl), with the dosage of Can of 0.36 mg/kg and the dosages of Chl of 0.0675, 0.36, 0.54, 0.72, 1.125 and 2.25 mg/kg respectively;
The pharmaceutical composition is administered with 6 different doses (denoted by F1, F2, F3, F4, F5 and F6 respectively). Specifically, the ratios of the dosages of Can+Chl in all pharmaceutical compositions are:
The administration volumes are all 5 ml/kg.
Rats are continuously administered for 8 days. SBPs are measured 2, 4, 8, 12 and 24 hours after the last administration. The area under blood pressure reduction-time curve from 0 to 24 h (AUC0-24) and the maximum blood pressure reduction value are calculated.
(§3) The calculated results are expressed as mean±standard error ( x±SE); statistical treatment is performed using unpaired t test between groups to compare the significance of the average difference; the interaction between drugs are determined by using factorial analysis of variance, and P<0.05 means the difference has statistical significance.

For test [4] the test system is unchanged. The test is described as follows: SBP of SHR by Tail-Cuff method, first administration and continuous administration for 14 days (Examples 8-12). In kind it is in vivo, rat. As to conditions: for AUC0-24h: after first administration. The method, then: as §1, §2
SHRs with systolic blood pressures (SBPs)>190 mmHg are selected for experiment.
Rats are randomly divided into 20 groups according to their blood pressures with each group having 8-10 rats. Animals are fasted overnight and measured for the blood pressure of pre-administration at the day of experiment, and then administered drugs in accordance with the following method:
The single-drug group is intragastrically administered candesartan (Can) or chlorthalidone (Chl), with the dosage of Can of 0.1, 0.2, 0.4 mg/kg respectively and the dosage of Chl of 0.3125, 0.625, 1.25 mg/kg respectively;
According to the clinical single-drug specification, the ratios of Can+Chl are set as follows:
For the ratio of Can:Chl=1:6.25, one dose of 0.1+0.625 mg/kg is set;
For the ratio of Can:Chl=1:3.125, two doses of 0.2+0.625 and 0.4+1.25 mg/kg are set;
For the ratio of Can:Chl=1.28:1, one dose of 0.4+0.3125 mg/kg is set;
For the ratio of Can:Chl=2.56:1, one dose of 0.4+0.15625 mg/kg is set;
The administration volumes are all 5 mL/kg. Rats are continuously administered for 14 days. SBPs are measured 2, 4, 8, 12 and 24 hours after the first administration. On the day of 3, 7, 14 days after administration, the blood pressures are measured before administration and 5 hours after administration. Areas under blood pressure reduction-time curve from 0 to 24 h and from 0 to 14 days (AUC0-24h, AUC0-14d) are calculated.
as §3

Setting [5] is: listed as candesartan cilexetil.

`NCCCC[C@H](N[C@@H](CCc1ccccc1)C(=O)O)C(=O)N1CCC[C@H]1C(=O)O` [lisinopril]: the “valid control rate of blood pressure” value in test [1] was 61.2%.

As to `CCOc1nc2cccc(C(=O)O)c2n1Cc1ccc(-c2ccccc2-c2nc(=O)o[nH]2)cc1` [azilsartan], in the test on patients, the “reduction of SBP compared with the basic value” was 12.1-15.9 mmHg.

`NS(=O)(=O)c1cc2c(cc1Cl)NCNS2(=O)=O` [hydrochlorothiazide, Hydrochlorothiazide]: in test [2], the “lowering of 24-hour blood pressure” value was 7.4 mmHg and the “lowering of night-time blood pressure” value was 6.4 mmHg.

Regarding `CCOc1nc2cccc(C(=O)OC(C)OC(=O)OC3CCCCC3)c2n1Cc1ccc(-c2ccccc2-c2nn[nH]n2)cc1` (stereo not shown) [Can, Candesartan cilexetil], the “maximum reduction of the blood pressure” value in test [3] is reported as −19.0 mmHg; in test [3] (setting [5]) it was 19.0 mmHg. In addition, the SBP in test [3] (2 h after last administration) came to 192 mmHg; in test [3] (4 h after last administration), 185 mmHg; in test [3] (8 h after last administration), 196 mmHg; in test [3] (12 h after last administration), 199 mmHg; in test [3] (24 h after last administration), 204 mmHg; in test [3] (pre-administration), 201 mmHg. In addition, the “SBP difference value compared with the basic value” in test [3] (2 h after last administration) was “(−11.0 mmHg”; in test [3] (4 h after last administration), “(−17.7 mmHg”; in test [3] (8 h after last administration), “(−7.3 mmHg”; in test [3] (12 h after last administration), “(−3.7 mmHg”; in test [3] (24 h after last administration) it was “(1.4 mmHg”; in test [3] (pre-administration) it was “(−2.0 mmHg”. The “AUC0-24h (area under blood pressure reduction-time curve)” value is recorded as −127.0 mmHg · h in test [3] and −127 mmHg · h in test [3] (setting [5]). For the same molecule, the “period after administration with significant reduction of SBP” value in test [3] (Can 0.36 mg/kg oral) was in the range of 2 to 8 h. For the same molecule, the “time at which the antihypertensive effect takes effect after administration” value in test [3] (Can 0.36 mg/kg oral) came to 2 h. The AUC0-14d in test [4] (Can 0.1 mg/kg i.g. for 14 days) is −149.9 mmHg · d; in test [4] (Can 0.2 mg/kg i.g. for 14 days) it was −173.1 mmHg · d; in test [4] (Can 0.4 mg/kg i.g. for 14 days), −227.3 mmHg · d. Further, the AUC0-24h in test [4] (Can 0.1 mg/kg i.g.) is −209.1 mmHg · h; in test [4] (Can 0.2 mg/kg i.g.) it was −237.7 mmHg · h; in test [4] (Can 0.4 mg/kg i.g.), −326.0 mmHg · h and −326 mmHg · h.
